Source: publication PMC4298654, “In vivo formation of N-acyl-fumonisin B1” (Mycotoxin Research, 2014)
Read-outs that look alike come from different tables or passages of the source.

Experiments:
[1] = system: rat liver and kidney; assay: Histological examination of rat liver and kidney; assay type: in vivo; details: ip, 5 days; FB1 0.5, 1.0, 2.0 mg/kg or HFB1 1.0 mg/kg body weight per day; n = 2/group
Text: The study protocol was approved by the Institutional Animal Care and Use Committee, Richard B. Russell Agricultural Research Center, Athens, GA. Male Sprague–Dawley rats (Harlan Industries, Indianapolis, IN, USA), 7 weeks of age at receipt, were individually housed in stainless steel, wire mesh cages in an environmentally controlled room having a 12-h light/dark cycle. Food (2019 Global Rodent Diet, Teklad, Madison, WI, USA) and fresh tap water were provided ad libitum. After a 1 week acclimation period, the animals were randomly assigned to five groups (n = 2/group) having mean weights of 215 to 216 g (weight range of all animals, 211 to 220 g). For five consecutive days, they were observed, weighed, and given an intraperitoneal injection (ip) of 0 (vehicle), 0.5, 1.0, or 2.0 mg/kg body weight FB1 (provided by R. Eppley, US FDA), 1.0 mg/kg body weight HFB1 (positive control) (Voss et al. [2009]), or vehicle (0.9 % physiological saline). […] In order to compare the effects of FB1 and HFB1, dosages will be expressed as molar concentrations and, on this basis, the high dose of FB1 is roughly equivalent to that of the positive control dose of HFB1. […] The kidney and liver specimens were fixed in 10 % neutral buffered formalin, processed, and microscopically evaluated without knowledge of the animal’s identity or treatment group. […]

[2] = rats fed with fumonisin-contaminated diet; ref Riley and Voss 2006; cited from earlier work
[3] = parameters: method as in Martinez-Larranaga et al. 1999; details: single dose, ref Martinez-Larranaga et al. 1999, cited from earlier work
[4] = In vivo formation of NAFB1 and NAHFB1 in rat kidney and liver (HPLC-ESI-MS/MS); details: kidney; FB1 2.77 or HFB1 2.47 μmol/kg body weight per day ip, 5 days
Text: (§1) The study protocol was approved by the Institutional Animal Care and Use Committee, Richard B. Russell Agricultural Research Center, Athens, GA. Male Sprague–Dawley rats (Harlan Industries, Indianapolis, IN, USA), 7 weeks of age at receipt, were individually housed in stainless steel, wire mesh cages in an environmentally controlled room having a 12-h light/dark cycle. Food (2019 Global Rodent Diet, Teklad, Madison, WI, USA) and fresh tap water were provided ad libitum. After a 1 week acclimation period, the animals were randomly assigned to five groups (n = 2/group) having mean weights of 215 to 216 g (weight range of all animals, 211 to 220 g). For five consecutive days, they were observed, weighed, and given an intraperitoneal injection (ip) of 0 (vehicle), 0.5, 1.0, or 2.0 mg/kg body weight FB1 (provided by R. Eppley, US FDA), 1.0 mg/kg body weight HFB1 (positive control) (Voss et al. [2009]), or vehicle (0.9 % physiological saline). These doses corresponded to 0.69, 1.38, and 2.77 μmol FB1/kg body weight and 2.47 μmol/kg body weight HFB1 per day. In order to compare the effects of FB1 and HFB1, dosages will be expressed as molar concentrations and, on this basis, the high dose of FB1 is roughly equivalent to that of the positive control dose of HFB1. Dosing solutions were sterile filtered and administered at a volume rate of 10 ml/kg body weight. The animals were fasted overnight prior to administration of the final dose. The rats were euthanized (CO2 inhalation and exsanguination) 60 to 90 min following the final dose administration and examined by necropsy. The kidney and liver specimens were fixed in 10 % neutral buffered formalin, processed, and microscopically evaluated without knowledge of the animal’s identity or treatment group. Three representative liver and kidney specimens (100 mg each) were also collected, immediately frozen, and stored (−80 °C) until processed, at which time the tissues were thawed and homogenized in distilled/deionized water (1 ml water/100 mg tissue). The homogenates were lyophilized before they were shipped by overnight courier for the analysis of fumonisin metabolites and sphingolipids.
(§2) Lyophilized liver and kidney tissues (100 mg wet weight equivalents) were processed for the quantification of FB1, HFB1, NAFB1, NAHFB1, and sphingolipids. Preparation of the tissue samples was performed according to a previously published method (Harrer et al. [2013]). For the quantification of FB1 and HFB1, a d6-labeled derivative of FB1 (FB1-d6) was used as the internal standard. Synthetic derivatives with a heptadecanoic fatty acid (C17:0) residue were used as internal standards for the quantification of N-acyl-fumonisins and ceramides (N-C17:0-FB1, N-C17:0-HFB1, and N-C17:0-ceramide). The sphingoid bases and their phosphate derivatives were quantified using synthetic derivatives with a C17-acyl-backbone: sphingosine (C17:1), sphingosine-1-phosphate (C17:1), sphinganine (C17:0), sphinganine-1-phosphate (C17:0) as internal standards. The standards were dissolved in methanol:chloroform (2:1, v/v) and then mixed with the tissue samples. The samples spiked with internal standard were kept at room temperature for 30 min before being processed further. The internal standard-spiked samples were first extracted with ethyl acetate, isopropanol, and water (60:30:10, v/v/v) and a second time using methanol, chloroform, and water (60:30:10, v/v/v). The extracts were combined, the solvents removed by evaporation, and the dried samples stored at−80 °C till analyzed.
(§3) For the analysis, the samples were reconstituted in a mixture of water, methanol, and tetrahydrofurane (60:24:16, v/v/v). The NAFB1 and NAHFB1 derivatives having the following fatty acyl chain lengths were quantified by HPLC-MS/MS: C16:0, C18:0, C20:0, C22:0, C24:0, C26:0. Furthermore, we also quantified the unsaturated derivatives C24:1 and C26:1. The results are given as the sum of all N-acyl derivatives of FB1 or HFB1. […]

[5] = system: sphingolipid metabolism; assay: Sphingolipid levels in rat kidney and liver after ip FB1 or HFB1; assay type: in vivo; details: 5 days; for levels of sphingoid bases and 1-phosphates (total sphingosine, total sphinganine) in tissues compared to vehicle-treated controls: ip
Text: as §1, §2

[6] = parameters: method as in Bulder et al. 2012; details: ref Bulder et al. 2012; cited from earlier work
[7] = Tissue FB1 and HFB1 concentrations in rat kidney and liver (HPLC-ESI-MS/MS); assay type: in vivo; details: HFB1 2.47 μmol/kg body weight per day ip, 5 days
Text: as §1, §2, §3

[8] = kidney, dose High: 2.77 μmol FB1/kg or 2.47 μmol HFB1/kg body weight per day ip
[9] = kidney, dose Low: 0.69 μmol FB1/kg body weight per day ip
[10] = kidney, dose Mid: 1.38 μmol FB1/kg body weight per day ip
[11] = liver, dose High: 2.77 μmol FB1/kg or 2.47 μmol HFB1/kg body weight per day ip
[12] = liver, dose Low: 0.69 μmol FB1/kg body weight per day ip
[13] = liver, dose Mid: 1.38 μmol FB1/kg body weight per day ip

In the case of `CCCC[C@@H](C)[C@@H](OC(=O)C[C@@H](CC(=O)O)C(=O)O)[C@H](C[C@@H](C)C[C@H](O)CCCC[C@@H](O)C[C@H](O)[C@H](C)N)OC(=O)C[C@@H](CC(=O)O)C(=O)O` [FB1, Fumonisin B1], the “microscopic appearance of kidney and liver” value [1] is listed as “Mild to moderate apoptotic, mitotic, and other effects consistent with fumonisin exposure”, the “FB1 concentration (ng/g wet weight) in the kidney relative to the liver” value [2] is listed as “approximately tenfold higher” and the AUCtissue/AUCplasma ratio ([3]; kidney) is listed as 29.9. The AUCtissue/AUCplasma ratio ([3]; liver) was 2.03, the “metabolites of the dosed mycotoxin found in the kidney” value [4] was “less than 0.5 nmol/g” and the tissue ceramide concentrations ([5]; kidney and liver, FB1 ip) was “decreased in both tissues”. For the same compound, the “levels of sphingoid bases and 1-phosphates (total sphingosine, total sphinganine) in tissues compared to vehicle-treated controls” value ([5]; kidney and liver) was “increased amounts”, the Sa/So ratio [5, 8] was 3.8 ± 1.8 and the “sphinganine (Sa)” value [5, 8] was 207 ± 79.9 nmol/g. The “sphinganine-1-phosphate (Sa1P)” value [5, 8] was 19.9 ± 1.0 nmol/g, the “sphingosine (So)” value [5, 8] was 56 ± 6.2 nmol/g and the “sphingosine-1-phospate (So1P)” value [5, 8] was 21.6 ± 4.5 nmol/g. For the same compound, the Sa/So ratio [5, 9] was 4.1 ± 1.0, the “sphinganine (Sa)” value [5, 9] was 252 ± 15.6 nmol/g and the “sphinganine-1-phosphate (Sa1P)” value [5, 9] was 16.7 ± 0.5 nmol/g. For the same compound, the “sphingosine (So)” value [5, 9] was 63 ± 11.5 nmol/g, the “sphingosine-1-phospate (So1P)” value [5, 9] was 21.4 ± 4.1 nmol/g and the Sa/So ratio [5, 10] was 2.5 ± 0.2. The “sphinganine (Sa)” value [5, 10] was 146 ± 11.3 nmol/g, the “sphinganine-1-phosphate (Sa1P)” value [5, 10] was 11.3 ± 1.5 nmol/g and the “sphingosine (So)” value [5, 10] was 59 ± 8.3 nmol/g. For the same compound, the “sphingosine-1-phospate (So1P)” value [5, 10] was 20.8 ± 0.7 nmol/g, the Sa/So ratio [5, 11] was 5.9 ± 0.0 and the “sphinganine (Sa)” value [5, 11] was 81 ± 17.1 nmol/g. The “sphinganine-1-phosphate (Sa1P)” value [5, 11] was 0.9 ± 0.5 nmol/g, the “sphingosine (So)” value [5, 11] was 14 ± 2.9 nmol/g and the “sphingosine-1-phospate (So1P)” value [5, 11] was 1.0 ± 0.3 nmol/g. For the same compound, the Sa/So ratio [5, 12] was 4.2 ± 0.9, the “sphinganine (Sa)” value [5, 12] was 68 ± 27.6 nmol/g and the “sphinganine-1-phosphate (Sa1P)” value [5, 12] was 0.2 ± 0.2 nmol/g. The “sphingosine (So)” value [5, 12] was 16 ± 3.3 nmol/g, the “sphingosine-1-phospate (So1P)” value [5, 12] was 0.4 ± 0.2 nmol/g and the Sa/So ratio [5, 13] was 5.5 ± 1.2. For the same compound, the “sphinganine (Sa)” value [5, 13] was 88 ± 15.1 nmol/g, the “sphinganine-1-phosphate (Sa1P)” value [5, 13] was 0.4 ± 0.1 nmol/g and the “sphingosine (So)” value [5, 13] was 17 ± 6.4 nmol/g. For the same compound, the “sphingosine-1-phospate (So1P)” value [5, 13] was 0.8 ± 0.0 nmol/g and the “absorption after oral exposure” value [6] was < 5 % of dose.

With `CCCC[C@@H](C)[C@@H](O)[C@@H](O)C[C@@H](C)C[C@H](O)CCCC[C@@H](O)C[C@H](O)[C@H](C)N` [HFB1, Hydrolyzed fumonisin B1, reference compound] the “microscopic appearance of kidney and liver” value [1] was “could not be differentiated from that of tissues from the vehicle control group”, the “HFB1 molar concentration in the liver relative to the kidney” value [7] was “about sixfold higher” and the “HFB1 molar concentration in tissue” value ([7]; kidney) was 0.27 nmol/g. The “unmetabolized HFB1 accumulated in tissue, % of the total dose (TD)” value ([7]; kidney) was less than 0.1 % TD, the “total amount of HFB1 species in tissue, % of the total dose (TD)” value ([7]; kidney, HFB1 plus N-acyl metabolites) was 0.03 % TD and the “HFB1 molar concentration in tissue” value ([7]; liver) was 1.78 nmol/g. The “unmetabolized HFB1 accumulated in tissue, % of the total dose (TD)” value ([7]; liver) was 0.7 % TD, the “metabolites of the dosed mycotoxin found in the kidney” value [4] was “less than 0.5 nmol/g” and the “levels of sphingoid bases and 1-phosphates (total sphingosine, total sphinganine) in tissues compared to vehicle-treated controls” value ([5]; kidney and liver) was “did not cause any significant changes”. For the same compound, the Sa/So ratio [5, 8] was 0.3 ± 0.0, the “sphinganine (Sa)” value [5, 8] was 3 ± 0.7 nmol/g and the “sphinganine-1-phosphate (Sa1P)” value [5, 8] was 0.6 ± 0.4 nmol/g. The “sphingosine (So)” value [5, 8] was 9 ± 2.8 nmol/g, the “sphingosine-1-phospate (So1P)” value [5, 8] was 0.4 ± 0.1 nmol/g and the Sa/So ratio [5, 11] was 0.5 ± 0.4. For the same compound, the “sphinganine (Sa)” value [5, 11] was 2 ± 1 nmol/g, the “sphinganine-1-phosphate (Sa1P)” value [5, 11] was 0.1 ± 0.1 nmol/g and the “sphingosine (So)” value [5, 11] was 3 ± 0.2 nmol/g. For the same compound, the “sphingosine-1-phospate (So1P)” value [5, 11] was 0.2 ± 0.0 nmol/g.
